Laboratory results reported in patent publication US20260007746A1, “COMPOSITIONS AND METHODS FOR TREATMENT OF INFLAMMATORY DISORDERS” (priority 2020, published 2026).

What follows are compounds tested on ConA-stimulated splenocytes (assay: Mitogen proliferative assay (MSC:splenocyte co-culture, BrdU)). Conditions: mAdMSC:splenocyte 1:20 and 1:10; with or without HA or E-selectin pre-incubation.
Assay type: cell-based, mouse
Procedure: Mitogen proliferative assays were performed as described previously (Yañez et al., 2006; Yanez et al., 2010). Briefly, splenocytes were isolated from C57BL/6 and BALB/c mice spleen cell suspensions by passage through 40-μm nylon cell strainers (Becton Dickinson), followed by red blood lysis with 0.83% ammonium chloride in 0.01 M Tris-HCl buffer pH 7.5 (Sigma-Aldrich). To induce splenocyte proliferation, 1×10^5 splenocytes were resuspended in RPMI 1640 medium (Gibco, Carlsbad, CA, United States) supplemented with 10% FBS (proliferation medium) and treated with 10 μg/ml concanavalin A (ConA) (Sigma-Aldrich). To assess for effect(s) on splenocyte proliferation, MSCs were resuspended in complete medium and seeded in wells together with splenocytes at decreasing ratios of MSC:splenocyte (from 1:1 to 1:100). After 3 days of MSC:splenocyte co-cultures, splenocyte proliferation was measured using an ELISA BrdU colorimetric kit (Roche Diagnostics). In brief, BrdU labeling reagent was added to wells 16 h before determination. Then, cells were fixed, DNA denatured and incubated with an anti-BrdU-POD antibody. After washing and substrate addition, absorbance was measured. In some experiments, UmAdMSCs and FucmAdMSCs, or FuchAdMSCs and FuchBMMSCs, were treated with sialidase from Vibrio cholerae (0.1 U/ml, Roche Diagnostics) to remove terminal sialic acids (i.e., sialUmAdMSCs and sialFucmAdMSCs, or sialFuchAdMSCs and sialFuchBMMSCs). As indicated, mMSCs or hMSCs were cultured for 24 h or 72 h with different concentrations of mE-Ig chimera or of hyaluronic acid (HA, from rooster comb; Sigma-Aldrich) for 24 h or 72 h following described protocols (Burdick et al., 2006; Thankamony and Sackstein, 2011). Briefly, mE-Ig or HA were immobilized on plates. […] In some experiments, cultures of mAdMSCs seeded on E-selectin and/or HA for 72 h were washed, then co-cultured in presence of continuous E-selectin and/or HA with murine splenocytes (at MSC:splenocyte ratio of 1:20) for 72 h in presence of ConA, and splenocyte proliferation was assessed. […]

Question: How did the “proliferation of mitogen-stimulated splenocytes in mAdMSC co-cultures with inhibitor” value (shortened to “proliferation … with inhibitor”) turn out when `Cn1cc(CC(N)C(=O)O)c2ccccc21` (racemic) [1-methyl-DL-tryptophan] was run?
Answer: significantly rescued the proliferation

Question: For `CNC(=N)NCCC[C@H](N)C(=O)O` [N^G-monomethyl-L-arginine], which “proliferation … with inhibitor” value is on record?
Answer: significantly rescued the proliferation

Question: How did the “proliferation … with inhibitor” value turn out when `NC(=O)c1ccc(-c2nc(-c3ccc4c(c3)OCO4)c(-c3ccccn3)[nH]2)cc1` [SB-431542] was run?
Answer: significantly rescued the proliferation
